Data from patent publication US20260007684A1, “AMIDE DERIVATIVES FOR INHIBITING NLRP3 AND USES THEREOF” (Ventus Therapeutics U.S., Inc., priority 2023, published 2026).

Experiments:
human NLRP3 [1] = target: T1, human NLRP3 (Homo sapiens (Human), UniProt Q96P20); experiment: Scintillation Proximity (SPA) NLRP3 Assay: displacement of 3H-MCC950; assay type: binding; details: for IC50: read-out: SPA IC50
human NLRP3 [2] = target: T1, human NLRP3; experiment: Human PBMC NLRP3 Assay (LPS priming, ATP stimulation, cytokine measurement); assay type: cell-based
human NLRP3 [3] = target: T1, human NLRP3; experiment: Human Whole Blood (hWB) NLRP3 Assay (LPS/ATP, IL-1β); assay type: cell-based
[4] = human PBMC, LPS priming, ATP stimulation, read-out: PBMC IC50
[5] = human whole blood, LPS/ATP, IL-1β, read-out: hWB IC50
[6] = PBMC IC50, human PBMC, LPS priming, ATP stimulation
[7] = hWB IC50, human whole blood, LPS/ATP, IL-1β

T1 sequence (Q96P20 whole entry): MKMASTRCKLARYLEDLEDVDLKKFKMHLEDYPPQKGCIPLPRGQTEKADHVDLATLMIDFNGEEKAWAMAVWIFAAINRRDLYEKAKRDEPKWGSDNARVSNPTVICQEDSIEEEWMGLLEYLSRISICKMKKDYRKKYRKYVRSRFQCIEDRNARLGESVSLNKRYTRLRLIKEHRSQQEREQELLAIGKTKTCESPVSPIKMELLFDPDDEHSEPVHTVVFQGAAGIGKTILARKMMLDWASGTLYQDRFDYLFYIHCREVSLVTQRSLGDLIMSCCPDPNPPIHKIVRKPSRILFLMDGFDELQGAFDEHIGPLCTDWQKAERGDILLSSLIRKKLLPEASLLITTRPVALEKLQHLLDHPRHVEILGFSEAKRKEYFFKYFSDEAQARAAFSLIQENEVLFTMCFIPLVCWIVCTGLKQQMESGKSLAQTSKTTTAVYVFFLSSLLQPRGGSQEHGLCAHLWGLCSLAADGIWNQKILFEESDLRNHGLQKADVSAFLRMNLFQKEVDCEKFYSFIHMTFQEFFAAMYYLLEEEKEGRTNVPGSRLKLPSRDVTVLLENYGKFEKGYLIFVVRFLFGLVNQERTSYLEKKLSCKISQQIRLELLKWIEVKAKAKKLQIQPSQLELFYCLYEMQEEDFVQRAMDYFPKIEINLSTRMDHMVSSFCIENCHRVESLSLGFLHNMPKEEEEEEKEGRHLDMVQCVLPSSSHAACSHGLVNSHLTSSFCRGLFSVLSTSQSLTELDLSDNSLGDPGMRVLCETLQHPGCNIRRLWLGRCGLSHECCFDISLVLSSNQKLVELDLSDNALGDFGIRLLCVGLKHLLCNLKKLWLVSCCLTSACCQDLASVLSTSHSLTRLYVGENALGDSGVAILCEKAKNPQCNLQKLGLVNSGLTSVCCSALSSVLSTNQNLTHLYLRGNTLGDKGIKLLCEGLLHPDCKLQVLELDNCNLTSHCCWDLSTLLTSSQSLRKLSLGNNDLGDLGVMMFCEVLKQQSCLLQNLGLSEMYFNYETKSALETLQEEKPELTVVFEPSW

C[C@@H]1CCN(c2nnn[nH]2)C[C@H](NC(=O)C2(c3ccc(OC(F)(F)F)cc3)CC2)C1 (single isomer, unassigned) [57A*]
IC50 (human NLRP3 [1]; displacement of 3H-MCC950): < 1 µM
IC50 (human NLRP3 [2]; [4]): 0.01 to 0.1 µM
IC50 (human NLRP3 [3]; [5]): 1 to 2 µM

C[C@@H]1CCN(c2nnn[nH]2)C[C@H](NC(=O)C2(c3ccc(OC(F)F)cc3)CC2)C1 (single isomer, unassigned) [58A*]
IC50 (human NLRP3 [1]; displacement of 3H-MCC950): < 1 µM
IC50 (human NLRP3 [2]; [4]): 0.01 to 0.1 µM
IC50 (human NLRP3 [3]; [5]): < 1 µM

C[C@@H]1C[C@@H](NC(=O)C2(c3ccc(C4CC4)c(F)c3O)CC2)[C@H]2CC[C@@H]1N2c1nnn[nH]1 [83A*, 1-(4-cyclopropy1-3-fluoro-2-hydroxyphenyl)-N-((1R,2R,4R,5S)-4-methy1-8-(1H-tetrazol-5-yl)-8-azabicyclo[3.2.1]octan-2-yl)cyclopropane-1-carboxamide]
IC50 (human NLRP3 [1]; displacement of 3H-MCC950): < 1 µM
IC50 (human NLRP3 [2]; [6]): < 0.01 µM
IC50 (human NLRP3 [3]; [7]): < 1 µM

Cc1ccc(C2(C(=O)N[C@@H]3C[C@H](C)CN(c4nnn[nH]4)C3)CC2)c(O)c1 [Compound 20A, 1-(2-hydroxy-4-methylphenyl)-N-((3R,5S)-5-methyl-1-(1H-tetrazol-5-yl)piperidin-3-yl)cyclopropane-1-carboxamide]
IC50 (human NLRP3 [1]; displacement of 3H-MCC950): < 1 µM
IC50 (human NLRP3 [2]; [4]): 0.01 to 0.1 µM
IC50 (human NLRP3 [3]; [5]): < 1 µM

Cc1ccc(C2(C(=O)N[C@@H]3C[C@@H](C)[C@@H]4CC[C@H]3N4c3nnn[nH]3)CC2)cc1 [87A*, N-((1R,2R,4R,5S)-4-methy1-8-(1H-tetrazol-5-yl)-8-azabicyclo[3.2.1]octan-2-yl)-1-(p-tolyl)cyclopropane-1-carboxamide]
IC50 (human NLRP3 [1]; displacement of 3H-MCC950): < 1 µM
IC50 (human NLRP3 [2]; [6]): 0.01 to 0.1 µM
IC50 (human NLRP3 [3]; [5]): 1 to 2 µM

C[C@@H]1CCN(c2nnn[nH]2)C[C@@H](NC(=O)C2(c3ccc(Cl)cc3O)CC2)C1 (single isomer, unassigned) [60B*]
IC50 (human NLRP3 [1]; displacement of 3H-MCC950): < 1 µM
IC50 (human NLRP3 [2]; [4]): 0.01 to 0.1 µM
IC50 (human NLRP3 [3]; [5]): < 1 µM

C[C@@H]1C[C@@H](NC(=O)C2(c3ccc(OC(F)(F)F)cc3)CC2)[C@H]2CC[C@@H]1N2c1nnn[nH]1 [82A*, N-((1R,2R,4R,5S)-4-methy1-8-(1H-tetrazol-5-yl)-8-azabicyclo[3.2.1]octan-2-yl)-1-(4-(trifluoromethoxy)phenyl)cyclopropane-1-carboxamide]
IC50 (human NLRP3 [1]; displacement of 3H-MCC950): < 1 µM
IC50 (human NLRP3 [2]; [6]): < 0.01 µM
IC50 (human NLRP3 [3]; [7]): < 1 µM

C[C@H]1CC[C@H](NC(=O)C2(c3ccc(C(F)(F)F)cc3O)CC2)CN(c2nnn[nH]2)C1 [89B*, 1-(2-hydroxy-4-(trifluoromethyl)phenyl)-N-((3S,6S)-6-methyl-1-(1H-tetrazol-5-yl)azepan-3-yl)cyclopropane-1-carboxamide]
IC50 (human NLRP3 [1]; displacement of 3H-MCC950): < 1 µM
IC50 (human NLRP3 [2]; [4]): 0.01 to 0.1 µM
IC50 (human NLRP3 [3]; [5]): > 3 µM

C[C@@H]1CCN(c2nnn[nH]2)C[C@H](NC(=O)C2(c3ccc(OC(F)(F)F)cc3F)CC2)C1 (single isomer, unassigned) [64A*]
IC50 (human NLRP3 [1]; displacement of 3H-MCC950): < 1 µM
IC50 (human NLRP3 [2]; [4]): 0.01 to 0.1 µM
IC50 (human NLRP3 [3]; [5]): < 1 µM

C[C@H]1CC[C@@H](NC(=O)C2(c3ccc(Cl)cc3O)CC2)CN(c2nnn[nH]2)C1 (single isomer, unassigned) [90A*]
IC50 (human NLRP3 [1]; displacement of 3H-MCC950): < 1 µM
IC50 (human NLRP3 [2]; [4]): < 0.01 µM
IC50 (human NLRP3 [3]; [5]): > 3 µM

C[C@@H]1C[C@@H](NC(=O)C2(c3ccc(C(F)F)cc3)CC2)[C@H]2CC[C@@H]1N2c1nnn[nH]1 [86A*, 1-(4-(difluoromethyl)phenyl)-N-((1R,2R,4R,5S)-4-methy1-8-(1H-tetrazol-5-yl)-8-azabicyclo[3.2.1]octan-2-yl)cyclopropane-1-carboxamide]
IC50 (human NLRP3 [1]; displacement of 3H-MCC950): < 1 µM
IC50 (human NLRP3 [2]; [6]): 0.01 to 0.1 µM
IC50 (human NLRP3 [3]; [7]): < 1 µM

C[C@@H]1CCN(c2nnn[nH]2)C[C@@H](NC(=O)C2(c3ccc(C(F)(F)F)cc3O)CC2)C1 (single isomer, unassigned) [63B*]
IC50 (human NLRP3 [1]; displacement of 3H-MCC950): < 1 µM
IC50 (human NLRP3 [2]; [4]): 0.01 to 0.1 µM
IC50 (human NLRP3 [3]; [5]): < 1 µM

Cc1ccc(C2(C(=O)N[C@@H]3C[C@H](C)CCN(c4nnn[nH]4)C3)CC2)c(O)c1 (single isomer, unassigned) [67A*]
IC50 (human NLRP3 [1]; displacement of 3H-MCC950): < 1 µM
IC50 (human NLRP3 [2]; [4]): < 0.01 µM
IC50 (human NLRP3 [3]; [5]): < 1 µM

C[C@@H]1C[C@@H](NC(=O)C2(c3ccc(C4CC4)cc3)CC2)[C@H]2CC[C@@H]1N2c1nnn[nH]1 [81A*, 1-(4-cyclopropylphenyl)-N-((1R,2R,4R,5S)-4-methy1-8-(1H-tetrazol-5-yl)-8-azabicyclo[3.2.1]octan-2-yl)cyclopropane-1-carboxamide]
IC50 (human NLRP3 [1]; displacement of 3H-MCC950): < 1 µM
IC50 (human NLRP3 [2]; [6]): 0.01 to 0.1 µM
IC50 (human NLRP3 [3]; [7]): < 1 µM

C[C@@H]1C[C@@H](NC(=O)C2(c3ccc(SC(F)F)cc3)CC2)[C@H]2CC[C@@H]1N2c1nnn[nH]1 [85A*, 1-(4-((difluoromethyl)thio)phenyl)-N-((1R,2R,4R,5S)-4-methyl-8-(1H-tetrazol-5-yl)-8-azabicyclo[3.2.1]octan-2-yl)cyclopropane-1-carboxamide]
IC50 (human NLRP3 [1]; displacement of 3H-MCC950): < 1 µM
IC50 (human NLRP3 [2]; [6]): < 0.01 µM
IC50 (human NLRP3 [3]; [7]): < 1 µM

C[C@@H]1CCN(c2nnn[nH]2)C[C@H](NC(=O)C2(c3ccc(C(F)(F)F)cc3O)CC2)C1 (single isomer, unassigned) [63A*]
IC50 (human NLRP3 [1]; displacement of 3H-MCC950): < 1 µM
IC50 (human NLRP3 [2]; [4]): < 0.01 µM
IC50 (human NLRP3 [3]; [5]): < 1 µM

O=C(N[C@@H]1CC[C@H]2CC[C@@H]1N2c1nnn[nH]1)C1(c2ccc(OC(F)F)cc2O)CC1 [77C*, N-((1S,2R,5S)-8-(1H-tetrazol-5-yl)-8-azabicyclo[3.2.1]octan-2-yl)-1-(4-(difluoromethoxy)-2-hydroxyphenyl)cyclopropane-1-carboxamide]
IC50 (human NLRP3 [1]; displacement of 3H-MCC950): < 1 µM
IC50 (human NLRP3 [2]; [6]): 0.01 to 0.1 µM
IC50 (human NLRP3 [3]; [7]): < 1 µM

C[C@@H]1CCN(c2nnn[nH]2)C[C@H](NC(=O)C2(c3ccc(Cl)cc3F)CC2)C1 (single isomer, unassigned) [56A*]
IC50 (human NLRP3 [1]; displacement of 3H-MCC950): < 1 µM
IC50 (human NLRP3 [2]; [4]): < 0.01 µM
IC50 (human NLRP3 [3]; [5]): 1 to 2 µM

C[C@@H]1CCN(c2nnn[nH]2)C[C@H](NC(=O)C2(c3ccc(OC(F)(F)F)c(F)c3O)CC2)C1 (single isomer, unassigned) [28A*, 1-(3-fluoro-2-hydroxy-4-(trifluoromethoxy)phenyl)-N-(5-methyl-1-(1H-tetrazol-5-yl)azepan-3-yl)cyclopropane-1-carboxamide]
IC50 (human NLRP3 [1]; displacement of 3H-MCC950): < 1 µM
IC50 (human NLRP3 [2]; [4]): 0.01 to 0.1 µM
IC50 (human NLRP3 [3]; [5]): > 3 µM

C[C@@H]1CCN(c2nnn[nH]2)C[C@H](NC(=O)C2(c3ccc(C(F)(F)F)cc3)CC2)C1 (single isomer, unassigned) [61A*]
IC50 (human NLRP3 [1]; displacement of 3H-MCC950): < 1 µM
IC50 (human NLRP3 [2]; [4]): 0.01 to 0.1 µM
IC50 (human NLRP3 [3]; [5]): < 1 µM

O=C(N[C@@H]1CC[C@H]2CC[C@@H]1N2c1nnn[nH]1)C1(c2ccc(OC(F)(F)F)cc2O)CC1 [78C*, N-((1S,2R,5S)-8-(1H-tetrazol-5-yl)-8-azabicyclo[3.2.1]octan-2-yl)-1-(2-hydroxy-4-(trifluoromethoxy)phenyl)cyclopropane-1-carboxamide]
IC50 (human NLRP3 [1]; displacement of 3H-MCC950): < 1 µM
IC50 (human NLRP3 [2]; [6]): 0.01 to 0.1 µM
IC50 (human NLRP3 [3]; [5]): 2 to 3 µM

C[C@H]1C[C@@H](NC(=O)C2(c3ccc(C4CC4(F)F)cc3O)CC2)CN(c2nnn[nH]2)C1 (single isomer, unassigned) [94A*]
IC50 (human NLRP3 [1]; displacement of 3H-MCC950): < 1 µM
IC50 (human NLRP3 [2]; [4]): 0.01 to 0.1 µM
IC50 (human NLRP3 [3]; [5]): > 3 µM

C[C@@H]1C[C@@H](NC(=O)C2(c3ccc(Cl)cc3)CC2)[C@H]2CC[C@@H]1N2c1nnn[nH]1 [80A*, 1-(4-chlorophenyl)-N-((1R,2R,4R,5S)-4-methyl-8-(1H-tetrazol-5-yl)-8-azabicyclo[3.2.1]octan-2-yl)cyclopropane-1-carboxamide]
IC50 (human NLRP3 [1]; displacement of 3H-MCC950): < 1 µM
IC50 (human NLRP3 [1]): 0.13 µM
fold increase in binding activity (SPA IC50) (human NLRP3 [1]; relative to Compound 46A): 6.6 fold
IC50 (human NLRP3 [2]; PBMC IC50): 0.01 µM
IC50 (human NLRP3 [2]; [6]): 0.01 to 0.1 µM
fold increase in potency as measured by PBMC IC50 (human NLRP3 [2]; relative to Compound 46A): 10 fold
IC50 (human NLRP3 [3]; [7]): < 1 µM
IC50 (human NLRP3 [3]; read-out: hWB IC50): 0.84 µM
fold increase in potency as measured by hWB IC50 (human NLRP3 [3]; relative to Compound 46A): 3 fold

O=C(N[C@@H]1CCC[C@@H]2CC[C@H]1N2c1nnn[nH]1)C1(c2ccc(C3CC3)cc2O)CC1 [93A*, N-((1R,2R,6R)-9-(1H-tetrazol-5-yl)-9-azabicyclo[4.2.1]nonan-2-yl)-1-(4-cyclopropyl-2-hydroxyphenyl)cyclopropane-1-carboxamide]
IC50 (human NLRP3 [1]; displacement of 3H-MCC950): < 1 µM
IC50 (human NLRP3 [2]; [6]): 0.01 to 0.1 µM
IC50 (human NLRP3 [3]; [7]): 2 to 3 µM

Cc1ccc(C2(C(=O)N[C@@H]3C[C@H](C)CCN(c4nnn[nH]4)C3)CC2)c(O)c1F (single isomer, unassigned) [74A*]
IC50 (human NLRP3 [1]; displacement of 3H-MCC950): < 1 µM
IC50 (human NLRP3 [2]; [4]): < 0.01 µM
IC50 (human NLRP3 [3]; [5]): < 1 µM

C[C@H]1C[C@@H](NC(=O)C2(c3c(O)cc(C4CC4)cc3OC(F)(F)F)CC2)CN(c2nnn[nH]2)C1 (single isomer, unassigned) [95A*]
IC50 (human NLRP3 [1]; displacement of 3H-MCC950): < 1 µM
IC50 (human NLRP3 [2]; [4]): 0.01 to 0.1 µM
IC50 (human NLRP3 [3]; [5]): > 3 µM

C[C@@H]1CCN(c2nnn[nH]2)C[C@H](NC(=O)C2(c3ccc(C(F)(F)F)c(F)c3O)CC2)C1 (single isomer, unassigned) [31A*, 1-(3-fluoro-2-hydroxy-4-(trifluoromethyl)phenyl)-N-(5-methyl-1-(1H-tetrazol-5-yl)azepan-3-yl)cyclopropane-1-carboxamide]
IC50 (human NLRP3 [1]; displacement of 3H-MCC950): < 1 µM
IC50 (human NLRP3 [2]; [4]): < 0.01 µM
IC50 (human NLRP3 [3]; [5]): 2 to 3 µM
